Values quoted from earlier work as cited in US20070281911A1, “Use of Adefovir or Tenofovir for Inhibiting Mmtv-Like Viruses Involved in Breast Cancer and Primary Biliary Cirrhosis” (GILEAD SCIENCES INC., priority 2004, published 2007).

Target: MMTV RT enzyme (Mouse mammary tumor virus, UniProt P03365)
Sequence (P03365 861-1437): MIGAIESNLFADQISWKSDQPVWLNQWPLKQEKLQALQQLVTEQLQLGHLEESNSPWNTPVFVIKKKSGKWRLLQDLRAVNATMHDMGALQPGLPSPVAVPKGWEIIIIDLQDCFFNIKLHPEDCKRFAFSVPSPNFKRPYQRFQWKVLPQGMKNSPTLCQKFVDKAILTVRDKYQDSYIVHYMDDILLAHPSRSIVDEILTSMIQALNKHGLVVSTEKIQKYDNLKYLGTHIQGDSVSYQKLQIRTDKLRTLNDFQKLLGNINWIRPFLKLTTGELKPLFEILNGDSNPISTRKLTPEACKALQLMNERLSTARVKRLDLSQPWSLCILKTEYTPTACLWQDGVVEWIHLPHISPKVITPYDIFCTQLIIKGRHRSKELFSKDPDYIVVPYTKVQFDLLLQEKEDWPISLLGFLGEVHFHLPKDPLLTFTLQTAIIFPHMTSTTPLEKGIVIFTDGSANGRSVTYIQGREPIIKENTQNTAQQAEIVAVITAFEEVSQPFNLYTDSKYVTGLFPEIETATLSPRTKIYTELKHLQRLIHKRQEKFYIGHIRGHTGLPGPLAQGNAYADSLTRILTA

SMILES: Cc1cn([C@H]2C[C@H](N=[N+]=[N-])[C@@H](COP(=O)(O)OP(=O)(O)OP(=O)(O)O)O2)c(=O)[nH]c1=O [AZTppp]
- direct inhibition of MMTV RT enzyme compared with HIV RT enzyme: as efficiently as the HIV RT enzyme
